Assay results published in US20100120690A1, “Polypeptides Having Antimicrobial Activity and Polynucleotides Encoding Same” (Novozymes Adenium Biotech A/S, priority 2005, published 2010).

Assays:
Format in all cases: cell-based
[1] = tested on: Staphylococcus aureus, ATCC 29213; experiment: MIC, NCCLS/CLSI guidelines (Example 5), strain A; settings: relative to wildtype Plectasin; average of two independent experiments
Experimental: (§1) Plectasin wild-type (SEQ ID NO: 1) and several variants of Plectasin were expressed and purified. The Minimal Inhibitory Concentration (MIC) was determined to test for their antimicrobial activity following the NCCLS guidelines from CLSI (Clinical and Laboratory Standards Institute; formerly known as National Committee for Clinical and Laboratory Standards).
(§2) The peptides were tested against the following strains: • A: Staphylococcus aureus, ATCC 29213; • B: Staphylococcus aureus, ATCC 25923; • C: Staphylococcus aureus, ATCC 29737; • D: Staphylococcus aureus, MRSA ST5 (2001), multi-resistant clinical human isolate from Statens Serum Institut, Denmark; • E: Staphylococcus aureus, MRSA ST80 (2003), multi-resistant clinical human isolate from Statens Serum Institut, Denmark.
(§3) All MIC values represent an average of two independent experiments; and all results in Table 5 are expressed relative to wildtype Plectasin:
(§4) 0: >100% of Plectasin wildtype MIC; 1: 80-100% of Plectasin wildtype MIC; 2: 50-80% of Plectasin wildtype MIC; 3: <50% of Plectasin wildtype MIC.

[2] = tested on: Staphylococcus aureus, ATCC 25923; experiment: MIC, NCCLS/CLSI guidelines (Example 5), strain B; settings: relative to wildtype Plectasin; average of two independent experiments
Experimental: as §1, §2, §3, §4

[3] = tested on: Staphylococcus aureus, ATCC 29737; experiment: MIC, NCCLS/CLSI guidelines (Example 5), strain C; settings: relative to wildtype Plectasin; average of two independent experiments
Experimental: as §1, §2, §3, §4

[4] = tested on: Staphylococcus aureus, MRSA ST5 (2001); experiment: MIC, NCCLS/CLSI guidelines (Example 5), strain D; settings: relative to wildtype Plectasin; average of two independent experiments
Experimental: as §1, §2, §3, §4

[5] = tested on: Staphylococcus aureus, MRSA ST80 (2003); experiment: MIC, NCCLS/CLSI guidelines (Example 5), strain E; settings: relative to wildtype Plectasin; average of two independent experiments
Experimental: as §1, §2, §3, §4

[6] = tested on: panel of 6 different strains of Staphylococcus aureus; experiment: Average MIC, NCCLS/CLSI guidelines using caMHB (Example 6); settings: average over 6 S. aureus strains, duplicate; MIC above 32 counted as 64; read after 18-24 hours at 37° C.
Experimental: A large number of antimicrobial peptides of the invention were tested against a panel of 6 different strains of Staphylococcus aureus listed below:
Staphylococcus aureus, ATCC29213, MSSA, NCCLS reference strain; Staphylococcus aureus, ATCC25923, MSSA, NCCLS reference strain; Staphylococcus aureus, ATCC29737, MSSA; Staphylococcus aureus, E33235, MSSA; Staphylococcus aureus, 698-01, MRSA ST5, Str, Kan, Oxa; Staphylococcus aureus, 566-03, MRSA ST80, Oxa, Tet, Fus, Kan.
The staphylococci were exposed to the following peptide concentrations: 32; 16; 8; 4; 2; 1; 0.5; 0.25; 0.13; […]; and 0.03 microgram/mL. All peptides were purified, HPLC quantified and the concentrated peptides (>160 micrograms/mL) were diluted to 160 micrograms/mL in peptide dilution buffer (0.1% BSA, 0.01% Acetic Acid).
The MIC determination was done essentially as described by NCCLS/CLSI guidelines using caMHB. The MICs were read after 18-24 hours of 37° C. incubations and recorded along with the CFU in the table below.
A total number of 95 antimicrobial peptides of the invention were evaluated in duplicate against the 6 bacterial strains described above.
In the majority of the double determinations (93%), the MIC varied <2 fold. An average MIC is tabulated below. If the MIC was above 32 micrograms/mL, a value of 64 was used to calculate the average.

[7] = tested on: Staphylococcus carnosus ATCC51365; experiment: Yeast screening assay: radial diffusion assay of yeast supernatants; parameters: key: An activity of 3 is better than Plectasin; An activity of 2 corresponds to the activity of Plectasin; 1 is worse than Plectasin; settings: yeast supernatant, clearing zone in radial diffusion assay
How it was run: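 Activity scores (1 worse, 2 equal, 3 better than wild-type plectasin) come from the size of the radial-diffusion clearing zone against S. carnosus at 5×10^5 cfu/mL. Test samples were culture supernatants of yeast transformants induced with galactose for 3 days at 30 °C, and plates were developed at 37 °C with MTT.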

| Substance | Relative MIC, strain A [1] | Relative MIC, strain B [2] | Relative MIC, strain C [3] | Relative MIC, strain D [4] | Relative MIC, strain E [5] | Average MIC [6] [micrograms/mL] | Activity (antimicrobial activity relative to the activity of plectasin) [7] |
| --- | --- | --- | --- | --- | --- | --- | --- |
| D9A + K38R: variant of Plectasin (SEQ ID NO: 1) (GFGCNGPWAEDDMQCHNHCKSIKGYKGGYCAKGGFVCRCY) | 3 (<50% of Plectasin wildtype MIC) | 3 (<50% of Plectasin wildtype MIC) | 3 (<50% of Plectasin wildtype MIC) | 3 (<50% of Plectasin wildtype MIC) | 3 (<50% of Plectasin wildtype MIC) | 4 | – |
| GFGCNGPWDEDDMFCHNHCKSIKGYKGGYCAKGGFVCKCY [Mutation Q14F] | 1 (80-100% of Plectasin wildtype MIC) | – | 3 (<50% of Plectasin wildtype MIC) | 2 (50-80% of Plectasin wildtype MIC) | 3 (<50% of Plectasin wildtype MIC) | 5 | 3 |
| GFGCNGPWDEDDMQCHNHCKSIKRYKGGYCAKGGFVCKCY [Mutation G24R] | 1 (80-100% of Plectasin wildtype MIC) | 2 (50-80% of Plectasin wildtype MIC) | – | 2 (50-80% of Plectasin wildtype MIC) | 2 (50-80% of Plectasin wildtype MIC) | 8 | 2 |
| GFGCNGPWSEDDMQCHNHCKSIKGYKGGYCAKGGFVCKCY [Mutation D9S] | 2 (50-80% of Plectasin wildtype MIC) | 3 (<50% of Plectasin wildtype MIC) | 3 (<50% of Plectasin wildtype MIC) | 2 (50-80% of Plectasin wildtype MIC) | – | 7 | 3 |
| GFGCSGPWDEDDMRCHSHCKSIRGYKGGYCAKGGFVCKCY [N5S + Q14R + N17S + K23R] | 1 (80-100% of Plectasin wildtype MIC) | 3 (<50% of Plectasin wildtype MIC) | 3 (<50% of Plectasin wildtype MIC) | 3 (<50% of Plectasin wildtype MIC) | – | 8 | 3 |
| M13F + Q14K + K26R: variant of Plectasin (SEQ ID NO: 1) (GFGCNGPWDEDDFKCHNHCKSIKGYRGGYCAKGGFVCKCY) | 3 (<50% of Plectasin wildtype MIC) | – | 3 (<50% of Plectasin wildtype MIC) | 3 (<50% of Plectasin wildtype MIC) | 3 (<50% of Plectasin wildtype MIC) | 6 | – |
| M13V + N17T: variant of Plectasin (SEQ ID NO: 1) (GFGCNGPWDEDDVQCHTHCKSIKGYKGGYCAKGGFVCKCY) | – | 3 (<50% of Plectasin wildtype MIC) | 3 (<50% of Plectasin wildtype MIC) | 3 (<50% of Plectasin wildtype MIC) | 3 (<50% of Plectasin wildtype MIC) | 3 | – |
| N5R + M13V: variant of Plectasin (SEQ ID NO: 1) (GFGCRGPWDEDDVQCHNHCKSIKGYKGGYCAKGGFVCKCY) | 3 (<50% of Plectasin wildtype MIC) | – | 3 (<50% of Plectasin wildtype MIC) | 2 (50-80% of Plectasin wildtype MIC) | 3 (<50% of Plectasin wildtype MIC) | 5 | – |
| N5S + M13W + N17R: variant of Plectasin (SEQ ID NO: 1) (GFGCSGPWDEDDWQCHRHCKSIKGYKGGYCAKGGFVCKCY) | 3 (<50% of Plectasin wildtype MIC) | – | 3 (<50% of Plectasin wildtype MIC) | 3 (<50% of Plectasin wildtype MIC) | 3 (<50% of Plectasin wildtype MIC) | 2 | – |
